{
  "source": "patent US10702512B2",
  "about": "“Treatment of debilitating fatigue” (A. CARLSSON RESEARCH AB, priority 2015, dated 2020)",
  "test_system": "ME/CFS patients",
  "test": "Clinical Global Impression of Change (CGI-C), phase II clinical study",
  "type": "in vivo, human",
  "conditions": "for patients exhibiting improved CGI-C values: entire population",
  "procedure": "As used herein “Clinical Global Impression of Change” (CGI-C) (also known as Clinical Global Impression—Improvement (CGI-I)) scale is a 7 point scale that requires the clinician to assess how much the patient's illness has improved or worsened relative to a baseline state at the beginning of the intervention. […] Circular coated tablets for oral use of 15 mg and matching placebos was used. The tablets were administered by research nurses at the study site. The tablets were circular coated tablets for oral use containing 15 mg OSU6162. Matching placebos were used. The start dose was 15 mg OSU6162 twice daily (before breakfast and lunch) during 1 week with dose increase up to 30 mg twice daily during the following week. Efficacy was measured according to ratings using the self-assessment questionnaire for mental fatigue and related symptoms (MFS) after neurological disorders and injuries (Johansson et al, supra). Another primary endpoint was the result of the rating by the Clinical Global Impression of Change (Guy, supra), which rating was made by the doctor in charge of the patient. CGI-C scores range from 1 (very much improved) through to 7 (very much worse). Clinical Global Impression of Change (CGI-C) was evaluated by the clinician for each patient.",
  "data": [
    {"smiles": "CCCN1CCC[C@@H](c2cccc(S(C)(=O)=O)c2)C1.Cl", "note": "[OSU6162, (3S)-3-[3-(methylsulfonyl)-phenyl]-1-propylpiperidine hydrochloride]", "values": [
      {"measurement": "patients exhibiting improved CGI-C values", "setting": "after one week of treatment (15 mg twice daily, oral), 13 of 30", "value": 43, "unit": "%"},
      {"measurement": "patients exhibiting improved CGI-C values", "setting": "after two weeks of treatment (30 mg twice daily in week 2, oral), 17 of 30", "value": 57, "unit": "%"},
      {"measurement": "difference in CGI-C between treatment groups (OSU6162 vs placebo)", "setting": "entire patient population", "value": "no significant difference"},
      {"measurement": "CGI-C improvement vs placebo", "setting": "subgroup receiving concomitant antidepressant treatment, after one week, Mann-Whitney U-test p=0.0524", "value": "clear tendency after one week for a greater improvement"}
    ]}
  ]
}
